US6562796B2, “Derivatives of polyene macrolides and preparation and use thereof” (Micrologix Biotech Inc., priority 2000, dated 2003)
Marks after values point to notes of the source that are not given here.

What was measured:
[1] = tested on: rats; conditions: compared with amphotericin B; cited from earlier work
[2] = tested on: Candida albicans; experiment: Minimum Fungicidal Concentration, plating from MIC wells on blood agar; format: cell-based; conditions: blood agar plates, 35° C., 48 hours
Description: (§1) For each compound Minimum Inhibitory Concentrations (MIC) were determined as described in Reference Method for Broth Dilution Antifungal Susceptibility Testing of Yeasts; Approved Standard; NCCLS document M27-A (ISBN 1-56238-328-0); NCCLS, 940 West Valley Road, Suite 1400, Wayne, Pa. 19087, 1997. […] Ten microliter samples were removed from the corresponding wells and deposited onto blood agar plates. Plates were incubated at 35° C. for 48 hours. The highest compound dilution at which no colonies are apparent on the plate was considered the MFC. Maximum non-lethal dose (NLD) data were also obtained for each product by initially intravenously administering a single 16 mg/kg dose to each of 4 mice in several groups. After review of findings, higher or lower doses were administered and a maximum non-lethal dose was determined. Ed50 data were also obtained for each compound. Efficacy was evaluated in mice injected with C. albicans. Therapeutic efficacy was defined as a 2 log reduction in kidney cfu relative to mean vehicle control.

[3] = tested on: dogs; conditions: compared with amphotericin B; cited from earlier work
[4] = tested on: Candida albicans; experiment: Minimum Inhibitory Concentration, broth dilution (NCCLS M27-A); format: cell-based
Description: Of course, compounds having MICs on the low end of these ranges, or even lower, are preferred. […] Toxicity is less of a concern for typical administration, as is water solubility.
as §1

[5] = tested on: patients with systemic fungal infections; conditions: human, in vivo; cited from earlier work
[6] = tested on: C. albicans; experiment: Efficacy in mice injected with C. albicans (kidney cfu reduction); format: in vivo, Candida albicans; conditions: for ED50: Candida albicans, mice injected with C. albicans, efficacy = 2 log reduction in kidney cfu relative to mean vehicle control, read-out: ED50 Kidney CFU Red.; for level of Candida albicans in the kidneys of mice (FIG. 1): treated mice, compared with AME
Description: as §1

[7] = Water solubility
[8] = tested on: mice; conditions: cited from earlier work
[9] = tested on: mice; experiment: Maximum non-lethal dose, single intravenous dose in mice; format: in vivo
Description: as §1

SMILES | acute, nephro and hepto toxicity [1] | Micro. Data (DLM/CJ) MFC [2] | acute, nephro and hepto toxicity [3] | Micro. Data (DLM/CJ) MIC [4] | neurological toxicity in clinical trial [5] | ED50 [6] [mg/kg] | Water Sol. [7] | NLD (maximum non-lethal dose), literature value [8] | level of Candida albicans in the kidneys of mice (FIG. 1) [6] | NLD (maximum non-lethal dose) [9] [mg/kg]
COC(=O)[C@H]1[C@@H]2C[C@@H](O[C@@H]3O[C@H](C)[C@@H](O)[C@H](N)[C@@H]3O)/C=C/C=C/C=C/C=C/C=C/C=C/C=C/[C@H](C)[C@@H](O)[C@@H](C)[C@H](C)OC(=O)C[C@H](O)C[C@H](O)CC[C@@H](O)[C@H](O)C[C@H](O)C[C@](O)(C[C@@H]1O)O2 [AME, amphotericin B methyl ester] | lower acute, nephro and hepto toxicity than amphotericin B | 2 | lower acute, nephro and hepto toxicity than amphotericin B | 1 | many patients developed progressive neurological dysfunction associated with white matter degeneration | – | – | – | – | –
C[C@@H]1[C@H](O)[C@@H](C)/C=C/C=C/C=C/C=C/C=C/C=C/C=C/[C@H](O[C@@H]2O[C@H](C)[C@@H](O)[C@H](N)[C@@H]2O)C[C@@H]2O[C@](O)(C[C@@H](O)C[C@@H](O)[C@H](O)CC[C@@H](O)C[C@@H](O)CC(=O)O[C@H]1C)C[C@H](O)[C@H]2C(=O)O [AmB, amphotericin B, reference compound] | – | 2 | – | 0.5 | – | 3.58 | negligible | 2-4* mg/kg | – | –
COC(=O)C1C2C[C@@H](OC3O[C@H](C)[C@@H](O)[C@H](NC[C@@]4(O)OC[C@@H](O)[C@H](O)[C@@H]4O)[C@@H]3O)/C=C/C=C/C=C/C=C/C=C/C=C/C=C/[C@H](C)[C@@H](O)[C@@H](C)[C@H](C)OC(=O)C[C@H](O)C[C@H](O)CC[C@@H](O)[C@H](O)C[C@H](O)C[C@](O)(C[C@@H]1O)O2 (stereo partly shown) [Compound C1, N-tagatopyranose-amphotericin B methyl ester] | – | 2 | – | 2 | – | < 3 | >16 mg/mL | – | significantly lower | >64
COC(=O)C1C2C[C@@H](OC3O[C@H](C)[C@@H](O)[C@H](NC[C@@]4(O)OC[C@@H](O)[C@@H](OC5O[C@H](CO)[C@H](O)[C@H](O)[C@H]5O)[C@@H]4O)[C@@H]3O)/C=C/C=C/C=C/C=C/C=C/C=C/C=C/[C@H](C)[C@@H](O)[C@@H](C)[C@H](C)OC(=O)C[C@H](O)C[C@H](O)CC[C@@H](O)[C@H](O)C[C@H](O)C[C@](O)(C[C@@H]1O)O2 (stereo partly shown) [Compound C2] | – | 2 | – | 2 | – | < 3 | >16 mg/mL | – | significantly lower | >64
